Values joined by “and” are separate entries in the source; they are usually repeats but may differ in a detail not shown here. Equal values may be shown once.
Experiments:
CYP1A2 = target: T1, CYP1A2 (Homo sapiens, UniProt P05177); assay: Human CYP inhibition in human liver microsomes; format: in vitro ADME; details: substrate phenacetin, read-out: CYP inhibition IC50, 1A2
T1 sequence (P05177 1-516): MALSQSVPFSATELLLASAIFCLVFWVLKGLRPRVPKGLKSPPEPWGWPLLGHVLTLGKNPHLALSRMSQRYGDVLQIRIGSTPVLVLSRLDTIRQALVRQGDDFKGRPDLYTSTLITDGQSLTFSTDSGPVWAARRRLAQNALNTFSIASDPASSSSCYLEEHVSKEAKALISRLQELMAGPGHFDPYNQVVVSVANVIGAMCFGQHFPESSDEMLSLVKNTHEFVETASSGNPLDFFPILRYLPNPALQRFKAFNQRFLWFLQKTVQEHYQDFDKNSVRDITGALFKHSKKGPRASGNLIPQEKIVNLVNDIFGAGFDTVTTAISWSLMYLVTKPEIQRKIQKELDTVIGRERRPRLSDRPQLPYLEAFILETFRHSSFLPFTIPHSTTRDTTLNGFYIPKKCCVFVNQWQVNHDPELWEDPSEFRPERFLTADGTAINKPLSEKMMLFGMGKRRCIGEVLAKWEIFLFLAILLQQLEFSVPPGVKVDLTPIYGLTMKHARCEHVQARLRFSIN
Procedure: Study samples (containing either control inhibitor or test compound) were added into the tubes, vortexed gently and pre-incubated for 5 min at 37° C. 20 μL of NADPH solution was aliquoted into all tubes, then vortexed to start the reaction and to assure adequate mixture of the NADPH. After mixing, the tubes were incubated for 20 min at 37° C. in a shaking water bath and then quenched in […] formic acid/acetonitrile solution. After quenching, the samples were vortexed vigorously for 1 min and centrifuged at 4,000 rpm for 15 min (4° C.). 100 μL of supernatant was transferred to 0.65 ml tubes for LCMS analysis by the bioanalytical method described earlier. The CYP450 substrates and control inhibitors for each enzyme was as follows: CYP1A2 (phenacetin, naphthoflavone), CYP2C9 (diclofenac, sulfaphenazole), CYP2C19 (omeprazole, tranylcypromine), CYP2D6 (dextromethorphan, quinidine), CYP3A4 (midazolam, ketoconazole).

Huh-7D12 = assay: 99% toxic dose (TD99) in Huh-7D12; format: cell-based
E. coli PQ37 = assay: Mutagenicity evaluation (SOS-chromotest); format: cell-based, Escherichia coli; details: 10 mg/mL
Procedure: Mutagenicity evaluation: Escherichia coli PQ37 strain was grown overnight at 37° C., with shaking, in Luria Broth Base supplemented with 50 μg/mL Ampicillin. Bacteria were grown to mid-logarithmic phase and adjusted to an optical density of 0.4.
The second day, Luria Broth Base supplemented with 1.5% Agar was autoclaved for 15 minutes at 121° C. and then put into a water bath at 55° C. for 1 hour.
80 mL of warm agar was transferred into a plastic bottle (Milian, PETG 2019-0125) supplemented with […] ampicillin and 0.005% X-Gal (dissolved into DMF). 4 mL of E. coli PQ37 was added to the mixture and 70 mL of it was transferred into a square petri dish (Grenier Bio-One, Kremsmunster, Austria, 120×120 mm). Petri dish containing the mixture was dried 15 minutes at RT and once the mixture became solid, 6 mm absorbent disks were stuck on the plate.
5 μL of each compound were added on the disk with a pipet sold under the tradename PIPETMAN® P20 (Gilson S.A.S., Villiers-Le-Bel, France) and the petri dish was incubated overnight at 37° C.
The third day, zones of inhibition were recorded with a ruler and a picture of the plate was taken with a scanner (Canon 8800F, Cannon U.S.A., Inc., Melville, New York, United States of America).
Zone of inhibition was calculated by eye using a ruler and presence/absence of blue halo was reporter.

Row | Compound | IC50 (CYP1A2) | 99% toxic dose (TD99) (Huh-7D12) | Genotoxicity in the SOS-chromotest (E. coli PQ37)
1 | N#C/C=C/c1ccc2c(S(=O)(=O)n3nc(Nc4ccc(C#N)c(Cl)c4)nc3N)cccc2c1 [Compound 20, 4-[[5-amino-1-[[6-[2-cyanovinyl]-1-naphthyl]sulfonyl]-1,2,4-triazol-3-yl]amino]-2-chloro-benzonitrile] | > 50 µM | – | –
2 | Nc1nc(Nc2ccc(Cl)cc2)nn1S(=O)(=O)c1ccc2ccccc2c1 [Compound 1, N3-(4-chlorophenyl)-1-(2-naphthylsulfonyl)-1,2,4-triazole-3,5-diamine] | – | > 11 μg/ml and > 27.5 μM | did not appear to be genotoxic

— patent US20250179033A1 (priority 2021, published 2025)
